Data set [1] deals with CaCo (colon cancer). The experiment in a line: Survival fraction after 72 hours exposure (MTT assay). Type of data set: cell-based, human. The following applies: 72 hour. The procedure:
(§1) Growth inhibition was measured by the MTT assay. […] PC-3=prostate cancer; A549=non-small cell cancer; OvCar=ovarian cancer; CaCo=colon cancer; MCF-7=breast cancer; and SW900=non-small cell lung cancer.
On the technique in general: Tetrazolium dyes change colour on reduction, which living cells bring about.

Data set [2] has as its system A549 (non-small cell cancer). The data set is described as above. Type of data set: cell-based, human. The procedure: as §1
Data set [3] concerns MCF-7 (breast cancer). Described as above. Type of data set: cell-based, human. The procedure: (§2) Growth inhibition was measured by the MTT assay. Survival fraction is calculated from at least 3 experiments, and differences in survival fraction are statistically significant P<0.05, using the Paired Two-Sample For Means T-Test. […] PC-3=prostate cancer; A549=non-small cell cancer; OvCar=ovarian cancer; CaCo=colon cancer; MCF-7=breast cancer; and SW900=non-small cell lung cancer.

Data set [4] relates to PC-3 (prostate cancer). The data set is described as above. Type of data set: cell-based, human. Here is the method: as §2
Data set [5] relates to SW900 (non-small cell lung cancer). The description is as above. Type of data set: cell-based, human. The procedure: as §2
Data set [6] has as its system OvCar (ovarian cancer). The data set is described as above. Type of data set: cell-based, human. The procedure: as §2
Data set [7] deals with K562. The experiment in a line: DNA fragmentation by flow cytometry. Type of data set: cell-based, human. To be noted: FIGS. 4 and 5. From the text:
It has been shown that sodium butyrate can induce apoptosis in human tumors or tumor cell lines (L. A. Noorduyn et al., Histopathology 21:59, 1992).
(In general: Flow cytometry measures light scatter and fluorescence of single cells or particles in a stream.)

The subject of data set [8] is breast and colon lines. The experiment in a line: Enhancement of cytotoxicity of other chemotherapeutic agents by arginine butyrate. To be noted: evaluated with arginine butyrate.
From the text: Other chemotherapeutic agents with non-overlapping mechanisms of antiproliferative activity such as 5-fluorouracil, taxol and interferon alpha have been evaluated with arginine butyrate.
Data set [9] deals with Myeloid Leukemia (HL60). Briefly: MIC on cell proliferation, 7 days in culture. Type of data set: cell-based, human. Here is the method: (§3) The ability of arginine butyrate to induce differentiation has been evaluated and is measured by inhibition of growth, in some of the neoplastic cell types previously reported to be sensitive to (sodium) butyric acid, and found arginine butyrate to be as potent as butyric acid. We have also extended that work to additional cell types and found Arginine Butyrate to induce differentiation in these new cell types. Table 1 lists the cell types tested and the minimum inhibitory concentration (MIC) of sodium butyrate (NaB) and arginine butyrate (ArgB) on these cell lines. The MIC is the lowest dose that prevents all growth over the 7 days that the cells are maintained in culture, that is the minimum dose that prevents an increase in cell number. […] The […] of ArgB and NaB were equivalent on all cell lines tested.

The subject of data set [10] is Rhabdomyosarcoma. The experiment in a line: MIC on cell proliferation, 7 days in culture. Type of data set: cell-based, human. The procedure: as §3
For data set [11], the system named is Osteosarcoma (HOS). The experiment in a line: MIC on cell proliferation, 7 days in culture. Type of data set: cell-based, human. The procedure: as §3
Data set [12] deals with Gastric Carcinoma (AGS). Briefly: MIC on cell proliferation, 7 days in culture. Type of data set: cell-based, human. Here is the method: as §3
The subject of data set [13] is Erythroleukemia (K562). The experiment in a line: MIC on cell proliferation, 7 days in culture. Type of data set: cell-based, human. The procedure: as §3
The subject of data set [14] is Colonic Adenocarcinoma (HT29). Briefly: MIC on cell proliferation, 7 days in culture. Type of data set: cell-based, human. Here is the method:
as §3

The test system of data set [15] is Choriocarcinoma (JAR). Briefly: MIC on cell proliferation, 7 days in culture. Type of data set: cell-based, human. Here is the method:
as §3

The conditions of data set [16]: children with acute myelogenous leukemia or neuroblastoma; 0.5-1.5 g/kg/day for 14 days and 10 g/kg/day IV; cited from earlier work.
A short description of data set [17]: Clinical toxicity in patients. Type of data set: in vivo, human. The following applies: adults; IV infusion of similar doses. The procedure:
Clinical experience with butyrates have been performed in children with acute myelogenous leukemia in Israel, and in children with neuroblastoma (K. Prasad, Life Sci. 27:1351-58, 1980). […] Eleven pediatric patients and twelve adults with β-hemoglobinopathies were treated with IV arginine butyrate at a starting dose of 500 mg/kg/day for 2-7 weeks. If no side effects were noted, the rate was increased by 250 mg/kg/day to a final rate of 1500 mg/kg/day in 4 patients, and 2000 mg/kg/day in 2 patients. […] This rise in BUN returned to normal within 12 hours of discontinuation of drug, and is thought to be secondary to effect of arginine upon ureagenesis. […] Peak serum levels of butyrate ranged between 0.04-0.05 mM, and butyrate was not detectable 15 minutes after infusion was discontinued. Plasma arginine levels were also rapidly cleared, with a T1/2 of 15 minutes, and baseline arginine levels were reached within 12 hours after discontinuation of infusion.
Three patients with refractory neoplasms (breast, melanoma, adenocarcinoma, of unknown primary) have been enrolled and completed 1-2 cycles of arginine butyrate as a dose of 500 mg/kg/day over 6-8 hours for 10 days.
Three patients (with breast cancer, bowel cancer or Hodgkins disease) have completed two cycles of arginine butyrate at a dose of 750 mg/kg/day for 10 days. […] Otherwise, there was no other objective measures of organ progressed after treatment was topped. […] There was a further resolution of the disease during the second cycle. Disease progression was noted one month after second cycle was completed. At 1000 mg/kg/day, 3 patients have been enrolled on study.
An inter-group dose-escalation study is being conducted in patients with refractory malignancies. There are 3 patients per group with the dose levels starting at 500 mg/kg/day, and increasing by 250 mg/kg/day per group, if toxicity permits. Doses are given by 8 hour IV infusion, daily, for 5 days times 2 weeks, with weekends off, for a total of 10 days of treatment per cycle.

For data set [18], the system named is Fibroblasts (mouse BALB/c-3T3). The experiment in a line: MIC on cell proliferation, 7 days in culture. Type of data set: cell-based. The procedure: as §3
Data set [19] has as its system Fibroblasts (normal human). The experiment in a line: MIC on cell proliferation, 7 days in culture. The following applies: lowest dose that prevents all growth over 7 days. Type of data set: cell-based. The procedure:
as §3

Data set [20] concerns EBV+ and EBV− cell lines (X50-7, Akata, HPB-ALL, Nalm-6). The experiment in a line: Growth of EBV+ and EBV− cell lines. Type of data set: cell-based, human. The following applies: both EBV+ and EBV− cell lines. An excerpt:
In some experiments sodium was used instead of arginine to neutralize butyric acid. […] Cell lines used were X50-7, a latent EBV+ B-cell lymphoma; Akata, a producer EBV+ Burkitt's lymphoma; HPB-ALL, a T-cell line; and Nalm-6, an EBV− B-cell line. Growth curves for X50-7 cells in different concentrations of sodium butyrate are shown in FIG. 8b and the growth curves for HPB-ALL cells in different concentrations of sodium butyrate are shown in FIG. 8c.

Data set [21] has as its system post-transplant EBV-induced lymphomas. The experiment in a line: Compassionate treatment of post-transplant EBV-induced lymphomas. Type of data set: in vivo, human. The following applies: patient one; GCV for 2 weeks before arginine butyrate. From the text:
Finally, two patients with post-transplant EBV-induced lymphomas have been treated on a compassionate basis with IRB approval. Each patient is summarized below.
Patient one was a person, 2 months post lung transplant. They were receiving cyclosporin to prevent impending rejection. They developed massive lymphadenopathy in mediastinum and hilum, with progressive respiratory failure. They were biopsy positive for EBV, and the tumor cells were monoclonal and of donor origin.
They had been off all therapy, except ganciclovir, for 3 weeks when they started arginine butyrate at 1,000 mg/kg/day. […] They eventually died from Aspergillus infection.
The second patient was a person, 4 months post-allogeneic bone marrow transplant for leukemia. They were receiving cyclosporin to prevent rejection. They developed cervical, mediastinal and abdominal lymphadenopathy, with brain metastases. A biopsy was positive for EBV and tumor cells were monoclonal confirming the diagnosis of LPD.
They had been treated with and had no response to XRT, CHOP, or α-IFN plus gamma globulin. They had been off all therapy for 2 weeks and was cachectic, too weak to ambulate, paraplegic, in constant pain and had been admitted for terminal care, when they started arginine butyrate at 1,000 mg/kg/day and ganciclovir.

The mark [22] stands for this setting: Table 4, 0.1 A (0.1 μg/ml), 72 hour.
Setting [23] is: Table 4, 0.5 A (0.5 μg/ml), 72 hour.
Setting [24] is: Table 3, 1 CP (1.0 μg/ml), 72 hours.
Where [25] appears, read: Table 3, 2 CP (2.0 μg/ml), 72 hours.

The values that follow come from patent publication US6677302B2, “Compositions and methods for the treatment of viral disorders” (The Trustees of Boston University, priority 1996, dated 2004).

Read-outs that look alike come from different tables or passages of the source. Marks after values point to notes of the source that are not given here.

For the compound `COc1cccc2c1C(=O)c1c(O)c3c(c(O)c1C2=O)C[C@@](O)(C(=O)CO)C[C@@H]3O[C@H]1C[C@H](N)[C@H](O)[C@H](C)O1` [A, adriamycin], the “Survival Fraction” value in data set [1] (Table 4, 0.1 A (0.1 μg/ml)) is 0.68*; in [1] (Table 4, 0.5 A (0.5 μg/ml)), 0.62*; in data set [2] (setting [22]), 0.59*; in [2] (setting [23]), 0.59*; in data set [3] (Table 4, 0.1 A (0.1 μg/ml)), 0.73*; in data set [3] (Table 4, 0.5 A (0.5 μg/ml)), 0.69*. Moreover, the “Survival Fraction” value in data set [4] (setting [22]) was 0.72*; in data set [4] (setting [23]), 0.68*; in [5] (Table 4, 0.1 A (0.1 μg/ml)) it was 0.82*; in data set [5] (Table 4, 0.5 A (0.5 μg/ml)), 0.76*; in data set [6] (setting [22]), 0.83*; in [6] (setting [23]), 0.81*. Also, in [7], the “apoptotic activity on addition of arginine butyrate” value (from here on “apoptotic activity on addition”) is on record as “increased their apoptotic activity”.

Turning to `COc1cc([C@@H]2c3cc4c(cc3[C@@H](O[C@@H]3O[C@@H]5CO[C@@H](C)O[C@H]5[C@H](O)[C@H]3O)[C@H]3COC(=O)[C@H]23)OCO4)cc(OC)c1O` [etoposide], the “apoptotic activity on addition” value in data set [7] was “increased their apoptotic activity”.

For `N.N.[Cl][Pt][Cl]` [CP, cisplatin], the “Survival Fraction” value in [2] (setting [24]) was 0.77*; in data set [2] (setting [25]) it was 0.54*; in [4] (setting [24]), 0.92; in [4] (setting [25]), 0.49*; in data set [6] (setting [24]), 0.91; in data set [6] (setting [25]) it was 0.45*.

As to `CC(=O)O[C@H]1C(=O)[C@@]2(C)[C@H]([C@H](OC(=O)c3ccccc3)[C@]3(O)C[C@H](OC(=O)[C@H](O)[C@@H](NC(=O)c4ccccc4)c4ccccc4)C(C)=C1C3(C)C)[C@]1(OC(C)=O)CO[C@@H]1C[C@@H]2O` [taxol], the “concentration of agent at which enhancement of cytotoxicity was observed” value in [8] is given as “exceeding 10 mM”.

As for `O=P1(N(CCCl)CCCl)NCCCO1` (stereo not shown) [cyclophosphamide], the “apoptotic activity on addition” value in data set [7] was “Lack of enhancement”.

As usually defined, the MIC is the lowest concentration that inhibits growth of the organism. As to `CCCC(=O)[O-].[Na+]` [NaB, sodium butyrate, reference compound], the MIC is 78 µM in [9]; 156 µM in [10]; 312 µM in data set [11]; 2,000 μM in data set [12]; >5,000 μM in [13]; 2,000 μM in data set [14]. For the same compound, the results for the MIC in data set [15], in [18] and in [19] were 156 µM, >5,000 μM and >5,000 μM, respectively. Besides, the toxic side effects entry in [16] is “without toxic side effects”; in data set [17], “no toxic side effects”.

On to `Nc1nc(O)c2ncn(COC(CO)CO)c2n1` [GCV, ganciclovir, reference compound], for which, in [20], the levels generally cytocidal result is on record as “above 30 μM”. Moreover, the tumor response result in [21] is recorded as “showed no response”.

Regarding `CC[C@@]1(O)C(=O)OCc2c1cc1n(c2=O)Cc2cc3ccccc3nc2-1` [camptothecin], the “apoptotic activity on addition” value in data set [7] is “increased their apoptotic activity”.

`C[C@@H]1C[C@@H]([C@H](O)CC2CC(=O)NC(=O)C2)C(=O)[C@@H](C)C1` [cyclohexamide]: in data set [7], the “apoptotic activity on addition” value is given as “increased their apoptotic activity”.
